PMC6562672, “Dose-Dependent Sorafenib-Induced Immunosuppression Is Associated with Aberrant NFAT Activation and Expression of PD-1 in T Cells” (Cancers, 2019)
Where two headings read alike, the source gives them in different places.

Assays:
human T cells = assay: One-way mixed lymphocyte reaction (MLR), human T cells, CFSE; assay type: cell-based; conditions: high dose (10 µM), 96 h
Protocol: Flow cytometry acquisition and compensation was performed on a LSR Fortessa (BD Biosciences, San Jose, CA, USA). Analysis of listmode data was performed using Winlist 8.0 (Verity Software House, Inc., Topsham, ME, USA). Briefly, the viable responder lymphocytes were hierarchically gated for single, low side scatter, viable cells with absent CD45 labeling. The percentage of proliferating cells was determined based on CFSE dye dilution compared to the CFSE labeling intensity from the non-proliferating MLR negative control sample. The full list of antibodies and reagents used in assays is available in Table S1.
Mixed lymphocyte reactions were performed in human (human vs. human, Figure 1E) and woodchucks (woodchuck vs. human, Figure 1F). 10 mL peripheral blood from healthy donors and 3 mL woodchuck peripheral blood isolated. Stimulator cells (human cells for both assays) were irradiated at 40 Gy in a Mark I Cesium-137 irradiator for 20 min. Following irradiation, cells were stained for CD45-APC (BD Biosciences, San Jose, CA, USA). Responder cells (non-irradiated human or woodchuck cells) were labeled with CFSE (Thermo Fisher Scientific, Eugene, OR, USA). Target and responder cells were placed in a round bottom 96 well polypropylene plate at a 2:1 ratio in the presence of 0–10 µM sorafenib and incubated at 37 °C for 96 h. […]

PD-1 = assay: PD-1, CD8 and CD25 expression on T cells by imaging flow cytometry; assay type: cell-based, human
Protocol: PBMCs were allowed to ‘recover’ in AIM-V medium (Thermo Fisher Scientific) at 37 °C, 5% CO2 in a humidified atmosphere overnight. 2 × 10^6 cells were treated with 0–10 µM sorafenib for the durations specified in the results section. If the experimental conditions required T cell stimulation, samples were co-treated (stimulated) with 1 µg/mL anti-CD3 and 1 µg/mL anti-CD28 for 2 h. Following treatment, PBMCs were placed on ice to stop drug action and immunophenotyped for CD4, CD8, CD25, and PD-1 (CD279). NFAT1 was detected by indirect labeling. Antibodies were diluted in permeabilization wash buffer (PWB) consisting of 0.1% Triton-X-100 in FCM Buffer (1× phosphate buffered saline (PBS) + 0.5%BSA). The primary Rabbit polyclonal NFAT1 antibody was diluted 1:50 in PWB. Following this, 1:200 dilution of secondary AF647 conjugated F(ab’)2 fragment donkey anti rabbit IgG antibody (Jackson ImmunoResearch Laboratories Inc., West Grove, PA, USA) was added. Just prior to data acquisition on the ImageStream, DAPI was added to all samples (0.5 µg/mL final concentration), to stain the nucleus.
Imaging flow cytometry acquisition, compensation, and analysis was performed on an imaging flow cytometer (ImagestreamX Mk-II; Amnis, part of MilliporeSigma, Seattle, WA, USA) as described previously. Following compensation for spectral overlap, image analysis was performed with IDEAS® software (Amnis, Seattle, WA, USA). To assess nuclear NFAT1 translocation, the corresponding nuclear image and NFAT1 image of each cell was compared and a Similarity Score (SS) was assigned for individual cells using published methods (Figure S3).

[1] = Plasma pharmacokinetics of oral sorafenib in woodchucks (LC-MS/MS, noncompartmental analysis); assay type: in vivo, woodchuck (Marmota monax); conditions: for AUC / Cmax / Tmax: plasma, po; for AUC / Cmax / Tmax / Cmax/D, Geo Mean (%CV): woodchuck plasma; for Cmax: read-out: Cmax, Geo Mean (%CV); for Tmax: read-out: Tmax, Geo Mean (%CV)
Protocol: Woodchuck plasma study samples were analyzed for sorafenib with an LC-MS/MS assay using authentic standards of sorafenib and the internal standard (IS), d3-sorafenib, both obtained from Toronto Research Chemicals (Toronto, ON, Canada). Study samples were quantitated using calibration and quality control (QC) samples prepared by spiking sorafenib into sodium heparinized human plasma (Bioreclamation, LLC, Westbury, NY, USA). The woodchuck plasma study samples were extracted using a Quadra 4 SPE Automated Liquid Handling System (Tomtec Inc., Hamden, CT, USA) by mixing a 50 µL aliquot of a calibrator, QC, plasma blank, or study sample with 500 µL of ice cold acetonitrile containing the IS for the LC-MS/MS. LC-MS/MS analysis was performed using a Finnigan Surveyor MS Pump Plus and Thermo Pal Autosampler System interfaced with a TSQ Quantum Ultra Mass Spectrometer, all obtained from Thermo Fisher Scientific (Waltham, MA, USA). A noncompartmental pharmacokinetic analysis (NCA) was performed on individual concentration-time data using a linear trapezoidal, linear/log interpolation calculation method with uniform weighting. The software program utilized for this analysis was Phoenix 64 WinNonlin Version 6.3 (Pharsight Corp., St. Louis, MO, USA). Study sample (n = 9) concentrations that were above the lower limit of quantitation (LLOQ) of the assay (62.5 ng/mL) following dose administration (Day 1: pre-dose and 1, 3, 5, 7 and 24 h; Day 19: pre-dose and 1, 3, 5, and 7 h) were used in the NCA.
All WHV carrier woodchucks were randomly divided into three groups such as placebo, low dose (2.5 mg/kg/day), and high dose (5.0 mg/kg/day) groups (n = 5 animals/group) in a long-term efficacy study based on clinical and preclinical studies. Also, a compartmental pharmacokinetic (PK) model was used to select the two lowest doses that can achieve exposure sufficient to inhibit pharmacodynamic targets. Experimental woodchucks were treated with placebo, 2.5 mg/kg, or 5.0 mg/kg sorafenib once daily with a 5 days on and 2 days off schedule. Animals were dosed orally until tumor development. Another experiment was performed with the low (2.5 mg/kg/day) and high (5.0 mg/kg/day) dose groups (n = 3 animals/group) to see the efficacy of short-term (90 days treatment) usage of sorafenib. The primary endpoint of the in vivo study was disease free survival (DFS), and DFS was measured from the date of randomization until the date of any liver tumor detection. The secondary endpoint was tumor size over 2 cm, which was measured from the date of first tumor detection. All experimental protocols were approved by IACUC.

[2] = 2.5 mg/kg, oral 2.5 mg/kg, Day 1
[3] = 2.5 mg/kg, oral 2.5 mg/kg, Day 19
[4] = 5 mg/kg, oral 5.0 mg/kg, Day 19

What does the source list for CNC(=O)c1cc(Oc2ccc(NC(=O)Nc3ccc(Cl)c(C(F)(F)F)c3)cc2)ccn1 [sorafenib, Sorafenib]?
MLR response (T cell proliferation) (human T cells): significant decrease; proportion of CD4+CD25bright T cells (PD-1; dose-dependent manner, % of total CD4+ cells): decrease; CD8 expression in PD-1+ cells (PD-1; high dose (10 µM), PD-1+ T cells): decreased; NFAT1 activation and decreased expression of CD8 in PD-1 negative T cells (PD-1; high dose (10 µM), PD-1 negative T cells): not observed; proportion of PD-1-expressing CD8+ and CD4+ T cells (PD-1; high dose (10 µM), without exogenous stimulatory factors): increased; Cmax/D of high dose group relative to low dose group ([1]; 5.0 vs 2.5 mg/kg, Day 1): ~ 8 times; Cmax/D of high dose group compared with low dose group ([1]; 5.0 vs 2.5 mg/kg, Day 19): the same; AUC ([1]; 2.5 mg/kg, oral 2.5 mg/kg, Day 1, read-out: AUC1–7 h, Geo Mean (%CV)): 588 ng·h/mL; AUC ([1]; 2.5 mg/kg, oral 2.5 mg/kg, Day 1, read-out: AUCAll, Geo Mean (%CV)): 2600 ng·h/mL; Cmax [1, 2]: 136 ng/mL; Tmax [1, 2]: 5.92 h; AUC ([1]; 2.5 mg/kg, oral 2.5 mg/kg, Day 19, read-out: AUC1–7 h, Geo Mean (%CV)): 26800 ng·h/mL; AUC ([1]; 2.5 mg/kg, oral 2.5 mg/kg, Day 19, read-out: AUCAll, Geo Mean (%CV)): 30300 ng·h/mL; Cmax [1, 3]: 4970 ng/mL; Tmax [1, 3]: 4.22 h; AUC ([1]; 5 mg/kg, oral 5.0 mg/kg, Day 1, read-out: AUC1–7 h, Geo Mean (%CV)): 5960 ng·h/mL; AUC ([1]; 5 mg/kg, oral 5.0 mg/kg, Day 1, read-out: AUCAll, Geo Mean (%CV)): 21000 ng·h/mL; Cmax ([1]; 5 mg/kg, oral 5.0 mg/kg, Day 1): 1170 ng/mL; Tmax ([1]; 5 mg/kg, oral 5.0 mg/kg, Day 1): 3.98 h; AUC ([1]; 5 mg/kg, oral 5.0 mg/kg, Day 19, read-out: AUC1–7 h, Geo Mean (%CV)): 39100 ng·h/mL; Cmax [1, 4]: 7380 ng/mL; Tmax [1, 4]: 3.98 h; Cmax/D, Geo Mean (%CV) ([1]; oral 2.5 mg/kg, Day 1): 2, 54.4 (3.41) (ng/mL)/(mg/kg); Cmax/D, Geo Mean (%CV) ([1]; oral 2.5 mg/kg, Day 19): 3, 1990 (19.8) (ng/mL)/(mg/kg); Cmax/D, Geo Mean (%CV) ([1]; oral 5.0 mg/kg, Day 1): 3, 433 (75.8) (ng/mL)/(mg/kg); Cmax/D, Geo Mean (%CV) ([1]; oral 5.0 mg/kg, Day 19): 3, 2000 (54.5) (ng/mL)/(mg/kg)
